{
  "source": "patent US7608630B2",
  "about": "“Marasmius androsaceus L.es Fr extract, piperidone derivative, and their use for the preparation of hypertensives” (Hainan Yangpu New Special Pharmaceutical Co., Ltd., priority 2004, dated 2009)",
  "tested_on": "blood pressure of cats",
  "assay": "Reduction of blood pressure of cat",
  "assay_type": "in vivo",
  "conditions": "cats",
  "protocol": "A spontaneously hypertensive rat (SHR) was anesthetized with 40 mg/ml pentobarbital, and fixed by its back on an experimental stand. The skin at its neck was cut open after removing hair, and thereafter the right common carotid artery was separated with its proximal end being clamped by a artery clamp and its axifugal end being ligated by a thread. A V-shape cut was made with scissors at the axifugal end, into which an arterial cannula filled with heparin physiological saline was inserted. The arterial cannula was connected with a blood pressure transducer, and then the blood pressure transducer was connected to a computer-controlled three-way physiological-pharmacological recorder. The right femoral vein of the rat was separated and intubated for the injection of a drug. When the blood pressure became stable (i.e., the blood pressure contraction curve became straight), the rat was administered by intravenous route.\nFive cats of 2.5-3.2 kg were administered orally and intravenously respectively according to the method in Example 8, and then their systolic pressure and diastolic pressure were determined using normal cats non-administered as a control group.",
  "key": {"[1]": {"conditions": "5 mg/kg iv, 180 min after administration"}, "[2]": {"conditions": "5 mg/kg iv, 180 min after administration, 5 mg/kg"}, "[3]": {"conditions": "5 mg/kg iv, before administration"}, "[4]": {"conditions": "5 mg/kg iv, before administration, 5 mg/kg"}, "[5]": {"conditions": "10 mg/kg o.s, 10 min after administration"}, "[6]": {"conditions": "10 mg/kg o.s, 10 min after administration, 10 mg/kg"}, "[7]": {"conditions": "10 mg/kg o.s, 20 min after administration"}, "[8]": {"conditions": "10 mg/kg o.s, 20 min after administration, 10 mg/kg"}, "[9]": {"conditions": "10 mg/kg o.s, 30 min after administration"}, "[10]": {"conditions": "10 mg/kg o.s, 30 min after administration, 10 mg/kg"}, "[11]": {"conditions": "10 mg/kg o.s, 40 min after administration"}, "[12]": {"conditions": "10 mg/kg o.s, 40 min after administration, 10 mg/kg"}, "[13]": {"conditions": "10 mg/kg o.s, 50 min after administration"}, "[14]": {"conditions": "10 mg/kg o.s, 50 min after administration, 10 mg/kg"}, "[15]": {"conditions": "10 mg/kg o.s, 60 min after administration"}, "[16]": {"conditions": "10 mg/kg o.s, 60 min after administration, 10 mg/kg"}, "[17]": {"conditions": "10 mg/kg o.s, 90 min after administration"}, "[18]": {"conditions": "10 mg/kg o.s, 90 min after administration, 10 mg/kg"}, "[19]": {"conditions": "10 mg/kg o.s, 120 min after administration"}, "[20]": {"conditions": "10 mg/kg o.s, 120 min after administration, 10 mg/kg"}, "[21]": {"conditions": "10 mg/kg o.s, 150 min after administration"}, "[22]": {"conditions": "10 mg/kg o.s, 150 min after administration, 10 mg/kg"}, "[23]": {"conditions": "10 mg/kg o.s, 180 min after administration"}, "[24]": {"conditions": "10 mg/kg o.s, 180 min after administration, 10 mg/kg"}, "[25]": {"conditions": "10 mg/kg o.s, before administration"}, "[26]": {"conditions": "10 mg/kg o.s, before administration, 10 mg/kg"}},
  "note": "Values joined by “and” are separate entries in the source; they are usually repeats but may differ in a detail not shown here. Equal values may be shown once.",
  "data": [
    {"compound": "CC1(C)CNCC(C)(C)C1=O", "note": "[Compound of formula II, 3,3,5,5-tetramethyl-4-piperidone]", "values": [
      {"measurement": "Systolic pressure, Animal 1-4 individually", "setting": "5 mg/kg iv, 150 min after administration, 5 mg/kg", "result": "186 mmHg and 170 mmHg and 202 mmHg and 150 mmHg"},
      {"measurement": "Average Diastolic pressure", "setting": "[1]", "result": 133.75, "unit": "mmHg"},
      {"measurement": "Average Systolic pressure", "setting": "[1]", "result": 185, "unit": "mmHg"},
      {"measurement": "Diastolic pressure, Animal 1-4 individually", "setting": "[2]", "result": "123 mmHg and 148 mmHg and 156 mmHg and 108 mmHg"},
      {"measurement": "Systolic pressure, Animal 1-4 individually", "setting": "[2]", "result": "187 mmHg and 176 mmHg and 212 mmHg and 165 mmHg"},
      {"measurement": "Average Diastolic pressure", "setting": "[3]", "result": 146.25, "unit": "mmHg"},
      {"measurement": "Average Systolic pressure", "setting": "[3]", "result": 199.5, "unit": "mmHg"},
      {"measurement": "Diastolic pressure, Animal 1-4 individually", "setting": "[4]", "result": "169 mmHg and 138 mmHg and 163 mmHg and 115 mmHg"},
      {"measurement": "Systolic pressure, Animal 1-4 individually", "setting": "[4]", "result": "226 mmHg and 183 mmHg and 211 mmHg and 178 mmHg"},
      {"measurement": "Average Diastolic pressure", "setting": "[5]", "result": 119, "unit": "mmHg"},
      {"measurement": "Average Systolic pressure", "setting": "[5]", "result": 166.25, "unit": "mmHg"},
      {"measurement": "Diastolic pressure, individual animals", "setting": "[6]", "result": "143 mmHg and 145 mmHg and 112 mmHg and 76 mmHg"},
      {"measurement": "Systolic pressure, Animal 1-4 individually", "setting": "[6]", "result": "190 mmHg and 180 mmHg and 159 mmHg and 136 mmHg"},
      {"measurement": "Average Diastolic pressure", "setting": "[7]", "result": 107.25, "unit": "mmHg"},
      {"measurement": "Average Systolic pressure", "setting": "[7]", "result": 153, "unit": "mmHg"},
      {"measurement": "Diastolic pressure, individual animals", "setting": "[8]", "result": "130 mmHg and 136 mmHg and 91 mmHg and 72 mmHg"},
      {"measurement": "Systolic pressure, Animal 1-4 individually", "setting": "[8]", "result": "170 mmHg and 181 mmHg and 138 mmHg and 123 mmHg"},
      {"measurement": "Average Diastolic pressure", "setting": "[9]", "result": 96, "unit": "mmHg"},
      {"measurement": "Average Systolic pressure", "setting": "[9]", "result": 140.5, "unit": "mmHg"},
      {"measurement": "Diastolic pressure, individual animals", "setting": "[10]", "result": "110 mmHg and 108 mmHg and 91 mmHg and 75 mmHg"},
      {"measurement": "Systolic pressure, Animal 1-4 individually", "setting": "[10]", "result": "154 mmHg and 140 mmHg and 138 mmHg and 130 mmHg"},
      {"measurement": "Average Diastolic pressure", "setting": "[11]", "result": 95.25, "unit": "mmHg"},
      {"measurement": "Average Systolic pressure", "setting": "[11]", "result": 140.5, "unit": "mmHg"},
      {"measurement": "Diastolic pressure, individual animals", "setting": "[12]", "result": "107 mmHg and 100 mmHg and 95 mmHg and 79 mmHg"},
      {"measurement": "Systolic pressure, Animal 1-4 individually", "setting": "[12]", "result": "146 mmHg and 133 mmHg and 143 mmHg and 140 mmHg"},
      {"measurement": "Average Diastolic pressure", "setting": "[13]", "result": 101, "unit": "mmHg"},
      {"measurement": "Average Systolic pressure", "setting": "[13]", "result": 144.25, "unit": "mmHg"},
      {"measurement": "Diastolic pressure, individual animals", "setting": "[14]", "result": "110 mmHg and 116 mmHg and 95 mmHg and 83 mmHg"},
      {"measurement": "Systolic pressure, Animal 1-4 individually", "setting": "[14]", "result": "149 mmHg and 140 mmHg and 144 mmHg (2×)"},
      {"measurement": "Average Diastolic pressure", "setting": "[15]", "result": 103, "unit": "mmHg"},
      {"measurement": "Average Systolic pressure", "setting": "[15]", "result": 144, "unit": "mmHg"},
      {"measurement": "Diastolic pressure, individual animals", "setting": "[16]", "result": "110 mmHg and 117 mmHg and 102 mmHg and 83 mmHg"},
      {"measurement": "Systolic pressure, Animal 1-4 individually", "setting": "[16]", "result": "149 mmHg and 153 mmHg and 130 mmHg and 144 mmHg"},
      {"measurement": "Average Diastolic pressure", "setting": "[17]", "result": 103.75, "unit": "mmHg"},
      {"measurement": "Average Systolic pressure", "setting": "[17]", "result": 157, "unit": "mmHg"},
      {"measurement": "Diastolic pressure, individual animals", "setting": "[18]", "result": "102 mmHg and 120 mmHg and 97 mmHg and 96 mmHg"},
      {"measurement": "Systolic pressure, Animal 1-4 individually", "setting": "[18]", "result": "154 mmHg (2×) and 180 mmHg and 140 mmHg"},
      {"measurement": "Average Diastolic pressure", "setting": "[19]", "result": 108.25, "unit": "mmHg"},
      {"measurement": "Average Systolic pressure", "setting": "[19]", "result": 165, "unit": "mmHg"},
      {"measurement": "Diastolic pressure, individual animals", "setting": "[20]", "result": "93 mmHg and 154 mmHg and 96 mmHg and 90 mmHg"},
      {"measurement": "Systolic pressure, Animal 1-4 individually", "setting": "[20]", "result": "146 mmHg and 195 mmHg and 163 mmHg and 156 mmHg"},
      {"measurement": "Average Diastolic pressure", "setting": "[21]", "result": 111.75, "unit": "mmHg"},
      {"measurement": "Average Systolic pressure", "setting": "[21]", "result": 169.25, "unit": "mmHg"},
      {"measurement": "Diastolic pressure, individual animals", "setting": "[22]", "result": "93 mmHg and 161 mmHg and 109 mmHg and 84 mmHg"},
      {"measurement": "Systolic pressure, Animal 1-4 individually", "setting": "[22]", "result": "146 mmHg and 206 mmHg and 168 mmHg and 157 mmHg"},
      {"measurement": "Average Diastolic pressure", "setting": "[23]", "result": 117.5, "unit": "mmHg"},
      {"measurement": "Average Systolic pressure", "setting": "[23]", "result": 176.25, "unit": "mmHg"},
      {"measurement": "Diastolic pressure, individual animals", "setting": "[24]", "result": "107 mmHg and 164 mmHg and 112 mmHg and 87 mmHg"},
      {"measurement": "Systolic pressure, Animal 1-4 individually", "setting": "[24]", "result": "158 mmHg and 213 mmHg and 170 mmHg and 164 mmHg"},
      {"measurement": "Average Systolic pressure", "setting": "10 mg/kg o.s, 210 min after administration", "result": 176.5, "unit": "mmHg"},
      {"measurement": "Systolic pressure, Animal 1-4 individually", "setting": "10 mg/kg o.s, 210 min after administration, 10 mg/kg", "result": "159 mmHg and 213 mmHg and 170 mmHg and 164 mmHg"},
      {"measurement": "Average Systolic pressure", "setting": "10 mg/kg o.s, 240 min after administration", "result": 182.75, "unit": "mmHg"},
      {"measurement": "Systolic pressure, Animal 1-4 individually", "setting": "10 mg/kg o.s, 240 min after administration, 10 mg/kg", "result": "178 mmHg and 213 mmHg and 176 mmHg and 164 mmHg"},
      {"measurement": "Average Diastolic pressure", "setting": "[25]", "result": 147.5, "unit": "mmHg"},
      {"measurement": "Average Systolic pressure", "setting": "[25]", "result": 202.5, "unit": "mmHg"},
      {"measurement": "Diastolic pressure, individual animals", "setting": "[26]", "result": "143 mmHg and 165 mmHg and 145 mmHg and 137 mmHg"},
      {"measurement": "Systolic pressure, Animal 1-4 individually", "setting": "[26]", "result": "191 mmHg and 215 mmHg and 196 mmHg and 208 mmHg"}
    ]}
  ]
}
